Some test systems named below: A498; A549; K562; MCF7; LOX IMVI; HCC 2998; PC-3; SN12C; HOP-62; HT-29; NCI-H226; BT-549; IGROV-1; HCT-15; RPMI-8226; SNB-19; DU-145; SW-620; SR; CCRF-CEM.
Holding throughout (experiment): growth of human tumour cells (NCI), 48 h

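All cell lines were grown in 96-well plates and treated with compound for 48 hours. The concentration for 50% growth inhibition is given as GI50.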 Active and inactive are the calls of the source. Cut-off read from the data, not from the text of the source: active = GI50 up to about 1.1 µM and inactive = higher.

This is an account of results in ChEMBL document CHEMBL1201862, “PubChem BioAssay data set” (2004).

Turning to `CC(O)/C=C/C1OC(=O)CC1Nc1ccc(C=O)cc1` (centres undefined), the GI50 was > 100 µM (inactive) in the experiment on A498; > 100 µM (inactive) in the experiment with A549; 41.5 µM (inactive) in the experiment with K562; 55.2 µM (inactive) with MCF7; > 100 µM (inactive) with LOX IMVI; > 100 µM (inactive) with HCC 2998. In addition, the GI50 with PC-3 is > 100 µM (inactive); in the experiment on SN12C, > 100 µM (inactive); with HOP-62 it was 20.9 µM (inactive); in the experiment on HT-29, 41.7 µM (inactive); in the experiment on NCI-H226, > 100 µM (inactive); in the experiment with BT-549 it was > 100 µM (inactive). Besides, the GI50 in the experiment on IGROV-1 was 91.2 µM (inactive); with HCT-15 it was 60.7 µM; in the experiment on RPMI-8226 it was 24.2 µM (inactive); in the experiment on SNB-19 it was > 100 µM (inactive); in the experiment with DU-145, > 100 µM (inactive); in the experiment on SW-620, > 100 µM (inactive). Also, the GI50 with SR is 23.1 µM (inactive); in the experiment with CCRF-CEM it was 15.8 µM (inactive).

For the compound `O=c1ccn(CC2(CO)CC(Cc3ccccc3)C2)c(=O)[nH]1` (centres undefined), the GI50 with A498, in the experiment on A549, in the experiment on K562, with MCF7, in the experiment with LOX IMVI and with HCC 2998 was > 100 µM (inactive) throughout. Moreover, the GI50 in the experiment with PC-3, with SN12C, with HOP-62, in the experiment with HT-29, with NCI-H226 and in the experiment on BT-549 was > 100 µM (inactive) each time. Further, the GI50 in the experiment with IGROV-1 was > 100 µM (inactive); with HCT-15, over 100 µM; in the experiment with RPMI-8226, > 100 µM (inactive); in the experiment on DU-145, > 100 µM (inactive); in the experiment with SW-620, > 100 µM (inactive); in the experiment on SR, > 100 µM (inactive). For the same compound, in the experiment with CCRF-CEM, the GI50 is > 100 µM (inactive).

For `COc1ccc(C(OC(=O)[C@H](O[Si](C)(C)C(C)(C)C)[C@@H](NC(=O)c2ccccc2)c2ccccc2)c2ccc(OC)cc2)cc1`, the GI50 in the experiment on A498 is > 100 µM (inactive); in the experiment with A549 it was > 100 µM (inactive); in the experiment with K562 it was 24.8 µM (inactive); in the experiment on MCF7, 65 µM (inactive); in the experiment with LOX IMVI, > 100 µM (inactive); in the experiment on HCC 2998, 68.1 µM (inactive). Also, the GI50 in the experiment with PC-3, in the experiment on SN12C, in the experiment on HOP-62, with HT-29, with NCI-H226 and with BT-549 was > 100 µM (inactive) in each case. The GI50 in the experiment on IGROV-1 is > 100 µM (inactive); in the experiment with HCT-15, over 100 µM; with RPMI-8226 it was < 0.01 µM (active); in the experiment with SNB-19, > 100 µM (inactive); in the experiment on DU-145, > 100 µM (inactive); with SW-620, > 100 µM (inactive). Besides, the GI50 was 36.6 µM (inactive) in the experiment on SR and > 100 µM (inactive) with CCRF-CEM.

`COc1cc2cc(C(=O)N3CC(CCl)c4c3cc(N(C)C)c3ccccc43)[nH]c2c(OC)c1OC` (centres undefined): the GI50 in the experiment with A498 was 0.0123 µM (active); in the experiment on A549 it was < 0.01 µM (active); in the experiment on K562 it was < 0.01 µM (active); in the experiment on MCF7, < 0.01 µM (active); in the experiment with LOX IMVI, < 0.01 µM (active); in the experiment with HCC 2998 it was 0.0101 µM (active). The GI50 with PC-3 is < 0.01 µM (active); in the experiment on SN12C it was < 0.01 µM (active); in the experiment with HOP-62 it was < 0.01 µM (active); in the experiment with HT-29, < 0.01 µM (active); in the experiment on NCI-H226, 0.0132 µM (active); with BT-549, 0.103 µM (active). In addition, the GI50 is 0.0111 µM (active) in the experiment on IGROV-1; under 0.0115 µM in the experiment with HCT-15; 0.0144 µM (active) with RPMI-8226; 0.0124 µM (active) with SNB-19; < 0.01 µM (active) in the experiment with DU-145; 0.0107 µM (active) in the experiment with SW-620. Also, the GI50 in the experiment with SR and with CCRF-CEM was < 0.01 µM (active) each time.
